From patent US11298367B2, “Prodrugs of substituted triazole derivatives and uses thereof” (Bayer Aktiengesellschaft, priority 2017, dated 2022) come the findings set out here.

Molecules are shown by their SMILES. Where two headings read alike, the source gives them in different places.

For orientation: IC50 means the point on the concentration scale where inhibition reaches its midpoint.

In one assay the test system is human platelets. In words: Inhibition of vasopressin induced aggregation of human platelets. The format is cell-based. Particulars: human platelet rich plasma, AVP 100 nM. On the procedure: B-5. Inhibition of Vasopressin Induced Aggregation of Human Platelets for Verification of Prodrug Conversion into Drug
Human platelets endogenously express the V1a receptor. […] Therefore, platelets enriched from human blood may serve as a V1a expressing tissue for pharmacological studies with vasopressin antagonists.
To verify the conversion of prodrugs into the respective drugs, the prodrugs are incubated with and without alkaline phosphatase. Cleavage of the phosphate moiety by alkaline phosphatase converts the prodrug into the drug. As prodrug and underlying respective drug show different IC50 values, the value of the prodrug after alkaline phosphatase treatment resembles the IC50 of the respective drug.
100 μl of test compound at a concentration of 100 μM are incubated for 15 min with 500 units alkaline phosphatase at 37° C. in modified Tyrode buffer (134 mM NaCl, […], 0.34 mM NaH2PO4*H2O, 2.9 mM KCl, 5 mM HEPES, 5 mM Glucose) and stored at 4° C. until further use in the platelet aggregation assay.
Platelet-rich plasma (PRP) is obtained by centrifugation of the blood sample at 140 g for 20 min at room temperature. The resulting pellet is discarded and the PRP further centrifuged (11.000 rpm, 1 min) to produce platelet-poor plasma (PPP). Platelet aggregation is measured turbidimetrically using an aggregometer (APACT 4). The reaction is followed by monitoring changes in light transmission on 178 μL PRP aliquots, under continuous stirring at 37° C., against PPP control. Various concentrations of vasopressin antagonists (in 2 μL) are added to PRP 5 min before the addition of 20 μL AVP (final concentration 100 nM). The inhibitory effects of the compounds are determined by measuring the maximal amplitude of the aggregation curve compared with the control response. IC50 values are calculated on the basis of a concentration-response inhibition curve by an iterative nonlinear regression program. All values are expressed as mean values (Table 3A).

The target in another assay is T1, vasopressin V2 receptor (Rattus norvegicus, UniProt Q00788).
T1 construct: from tissue; host or cells: whole animal (conscious Wistar rats; renal V2 receptors)
The experiment in a line: Diuresis investigations in conscious rats kept in metabolism cages. Particulars: Wistar rats, i.v., solvent control = 100%. It counts as in vivo. On the procedure: B-8. In Vivo Assay for Detecting Vasopressin V2 Receptor-Meidated Effects: Diuresis Investigations in Conscious Rats Kept in Metabolism Cages
Wistar rats (400-500 g body weight) are kept with free access to feed (Altromin) and drinking water. During the experiment, the animals are kept with free access to drinking water for 7 hours individually in metabolism cages suitable for rats of this weight class (Tecniplast Deutschland GmbH, D-82383 Hohenpeißenberg). At the beginning of the experiment, the animals are administered the test substance in a volume of 1 ml/kg body weight of a suitable solvent (2-Hydroxylpropyl-beta-cyclodextrin) by intravenous application. Control animals only receive solvent. Controls and substance tests are carried out in parallel on the same day. Control groups and substance-dose groups each consist of 6 to 8 animals. During the experiment, the urine excreted by the animals is collected continuously in a receiver at the base of the cage. The volume of urine is determined separately for each animal. Before the beginning of the experiment, the body weight of the individual animals is determined.
Following intravenous administration, in comparison with the solvent control applications, a vasopressin V2 receptor blocking compound would bring about an increased excretion of urine, which is based essentially on an increased excretion of water (aquaresis).

The subject of assay [1] is vasopressin (AVP) mediated changes of systemic and renal hemodynamics. The experiment in a line: Acute effects on vasopressin-mediated changes of systemic hemodynamics, renal blood flow and oxygenation in anesthetized rats. Particulars: AVP 50 ng/kg/min + compound 30 μg/kg bolus, mean ± SD, n = 8. It counts as in vivo, rat. On the procedure: B-11. Acute Effects on Vasopressin-Mediated Changes of Systemic Hemodynamics, Renal Blood Flow and Oxygenation in Anesthetized Rats
Experiments are performed on male Sprague Dawley rats (Charles River, Deutschland; 350-450 g body weight). In preparation for surgical procedures rats are anesthetized with isoflurane and placed on a heated table to maintain core body temperature at 37° C., assessed using a rectal thermometer inserted. Inhalation anesthesia with isoflurane is applied using a calibrated vaporizer to induce and maintain anesthesia with 5 vol. % and 2 vol. % isoflurane, respectively. A PE50 cannula is placed in the right arteria femoralis for monitoring mean arterial pressure (MAP). Another PE50 catheter is inserted into the vena femoralis for intravenous infusion. The left kidney is exposed by a flank incision and separated from the perirenal attachments. The kidney capsule remains intact. During surgery and the subsequent equilibration and control periods, the rats receive an intravenous infusion of saline (0.9% NaCl) at rate 100 μL/min. Renal measurements of renal blood flow (RBF) are recorded using a laser Doppler blood flow probe (Oxford Optronix, UK) that is attached and stabilized to the surface of the kidney. The probe is inserted into the renal cortex to a depth of 2 mm and another into the renal medulla at 4 mm. The renal blood flow, oxygen and temperature are measured by combined sensor probe (Oxford Optronix, UK). MAP, heart rate (HR), RBF, temperature and oxygen are continuously recorded. After surgery and equilibration, baseline measurements are determined for 20 minutes. The rats are then intravenously infused with vasopressin atrate 50 ng/kg/min in 100 μL/kg for 20 minutes. In the third period, the effect of combined infusion of vasopressin and adual vasopressin receptor antagonist (Example 82 of WO 2016/071212) or a selective V1a antagonist (Example 1) or vehicle that is applied as a bolus in different concentration is determined.

The mark [2] stands for this setting: with alkaline phosphatase, read-out: IC50 with AP.
[3] abbreviates: without alkaline phosphatase, read-out: IC50 without AP.

T1 sequence (Q00788 whole entry): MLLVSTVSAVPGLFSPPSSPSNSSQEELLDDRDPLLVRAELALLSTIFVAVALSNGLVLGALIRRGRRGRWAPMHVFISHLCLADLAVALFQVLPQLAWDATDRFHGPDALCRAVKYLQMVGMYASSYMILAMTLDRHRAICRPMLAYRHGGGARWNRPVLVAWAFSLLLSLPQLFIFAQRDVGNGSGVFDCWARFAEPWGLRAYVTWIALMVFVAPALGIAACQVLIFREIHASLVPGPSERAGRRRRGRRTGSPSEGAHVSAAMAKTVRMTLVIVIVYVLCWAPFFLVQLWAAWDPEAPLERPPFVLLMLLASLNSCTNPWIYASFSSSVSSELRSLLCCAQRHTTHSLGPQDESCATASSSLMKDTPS

With `NC(=O)c1nc(Cn2nc(-c3ccc(Cl)cc3)n(C[C@H](OP(=O)(O)O)C(F)(F)F)c2=O)nn1-c1ncccc1C(F)(F)F` [Example 1, (2S)-3-[1-({5-Carbamoyl-1-[3-(trifluoromethyl)pyridin-2-yl]-1H-1,2,4-triazol-3-yl}methyl)-3-(4-chlorophenyl)-5-oxo-1,5-dihydro-4H-1,2,4-triazol-4-yl]-1,1,1-trifluoropropan-2-yl Dihydrogen Phosphate], in the assay on human platelets (setting [2]), the IC50 stood at 0.0127 µM. Moreover, the IC50 in the assay on human platelets (setting [3]) came to 0.145 µM. Besides, on vasopressin V2 receptor (dosage 0.3 mg/kg), the Urinary volume came to 127 % vs. control. The molecule also returned a Urinary volume at vasopressin V2 receptor (dosage 1.0 mg/kg) of 117 % vs. control. The Urinary volume at vasopressin V2 receptor (dosage 3.0 mg/kg) came out at 108 % vs. control. In assay [1], the “HR (heart rate)” value was 276.20 ± 4.46 BPM, the “MAP (mean arterial blood pressure)” value turned out to be 103.50 ± 4.97 mmHg, the “RBF (renal blood flow)” value turned out to be 877.00 ± 43.01 U and the “pO2 (partial pressure of renal oxygen)” value is 14.32 ± 1.13 mmHg.

Regarding `NC(=O)c1nc(Cn2nc(-c3ccc(Cl)cc3)n(C[C@H](O)C(F)(F)F)c2=O)nn1-c1ncccc1C(F)(F)F` [Example 4A, 3-({3-(4-Chlorophenyl)-5-oxo-4-[(2S)-3,3,3-trifluoro-2-hydroxypropyl]-4,5-dihydro-1H-1,2,4-triazol-1-yl}methyl)-1-[3-(trifluoromethyl)pyridin-2-yl]-1H-1,2,4-triazole-5-carboxamide], the IC50 in the assay with human platelets (setting [2]) came out at 0.0102 µM. For the same molecule, in the assay on human platelets (setting [3]), the IC50 is 0.0211 µM. On vasopressin V2 receptor (dosage 0.3 mg/kg), this molecule gave a Urinary volume of 95 % vs. control. The same molecule yielded a Urinary volume at vasopressin V2 receptor (dosage 1.0 mg/kg) of 154 % vs. control. This molecule had a Urinary volume on vasopressin V2 receptor (dosage 3.0 mg/kg) of 134 % vs. control. Moreover, in assay [1], the “HR (heart rate)” value was 270.50 ± 2.89 BPM, the “MAP (mean arterial blood pressure)” value turned out to be 114.80 ± 7.42 mmHg, the “RBF (renal blood flow)” value was 878.10 ± 96.92 U and the “pO2 (partial pressure of renal oxygen)” value is on record as 15.86 ± 4.01 mmHg.
